Measured values from US12435061B2 (priority 2020, dated 2025).
Several values for one entry are separate records, joined by “and”; a condition that tells them apart may be missing. Equal entries are not always repeated. Structures can show the parent of a compound that is named as a salt. Where two headings read alike, the source gives them in different places.

Molecular target: hTRPV3 (Homo sapiens (Human), UniProt Q8NET8)
Test: Whole-cell patch clamp, hTRPV3 Phase 1 / Phase 2 currents
Type: cell-based
Source text: Whole-cell patch clamp experiments permit the detection of currents through the TRPV3 channel in the cell line described above. A glass electrode is brought into contact with a single cell and the membrane is then ruptured, permitting control of the voltage of the cell membrane and measurement of currents flowing across the membrane using the amplifier attached to the electrode. A perfusion system permits control of the extracellular solution, including the addition of blockers and activators of the current. The current can be activated by heating this solution to 28° C. or warmer or by addition of 20 μM 2-APB to the solution.
TRPV3 cells were induced 20-48 hours, removed from growth plates, and replated at low density (to attain good single-cell physical separation) on glass coverslips for measurement. In some cases, cells were grown in low density overnight on glass coverslips. Patch clamp recordings were made in the whole-cell mode with a holding potential of −40 mV. Every 5 seconds, a voltage ramp was applied from −120 to +100 mV, 400 ms in duration. Currents elicited were quantified at −80 mV and +80 mV. […] External solution was Ringer's solution described above.
P1 refers to the Phase 1 current for human (h) TRPV3, and P2 refers to the Phase 2 current for human (h) TRPV3.
In Tables 3 and 4, Phase 1 refers to Phase 1 current for human (h) TRPV3 or rat (r) TRPV3, and Phase 2 refers to Phase 2 current for human (h) TRPV3 or rat (r) TRPV3. The hTRPV3 and rTRPV3 assays were performed as described herein. hERG refers to the inhibition the human ERG (hERG) channel. NaV1.5, refers to the pore forming aL-subunit of the voltage-dependent cardiac Na(+) channel and is an integral membrane protein involved in the initiation and conduction of action potentials. hTRPV3 HAMA IC50 refers to the IC50 of TRPV3 cells stably expressed in TRex-293 cells. Solubility Ringer refers to the compounds' solubility in Ringer's solution. LM T1/2 refers to liver microsome half-lives in either rat or human liver microsomes. FLIPR IC50 refers to the IC50 of the test compounds against recombinant hTRPV3 cells.

[1] = Phase 1 current, inward, whole-cell patch clamp, read-out: hTRPV3 Patch P1 Inwd
[2] = Phase 2 current, inward, whole-cell patch clamp, read-out: hTRPV3 Patch P2 Inwd
[3] = Phase 1 current, read-out: hTRPV3 (nM) (Phase 1)
[4] = Phase 2 current, read-out: hTRPV3 (nM) (Phase 2)

Sequence of hTRPV3 (Q8NET8 whole entry): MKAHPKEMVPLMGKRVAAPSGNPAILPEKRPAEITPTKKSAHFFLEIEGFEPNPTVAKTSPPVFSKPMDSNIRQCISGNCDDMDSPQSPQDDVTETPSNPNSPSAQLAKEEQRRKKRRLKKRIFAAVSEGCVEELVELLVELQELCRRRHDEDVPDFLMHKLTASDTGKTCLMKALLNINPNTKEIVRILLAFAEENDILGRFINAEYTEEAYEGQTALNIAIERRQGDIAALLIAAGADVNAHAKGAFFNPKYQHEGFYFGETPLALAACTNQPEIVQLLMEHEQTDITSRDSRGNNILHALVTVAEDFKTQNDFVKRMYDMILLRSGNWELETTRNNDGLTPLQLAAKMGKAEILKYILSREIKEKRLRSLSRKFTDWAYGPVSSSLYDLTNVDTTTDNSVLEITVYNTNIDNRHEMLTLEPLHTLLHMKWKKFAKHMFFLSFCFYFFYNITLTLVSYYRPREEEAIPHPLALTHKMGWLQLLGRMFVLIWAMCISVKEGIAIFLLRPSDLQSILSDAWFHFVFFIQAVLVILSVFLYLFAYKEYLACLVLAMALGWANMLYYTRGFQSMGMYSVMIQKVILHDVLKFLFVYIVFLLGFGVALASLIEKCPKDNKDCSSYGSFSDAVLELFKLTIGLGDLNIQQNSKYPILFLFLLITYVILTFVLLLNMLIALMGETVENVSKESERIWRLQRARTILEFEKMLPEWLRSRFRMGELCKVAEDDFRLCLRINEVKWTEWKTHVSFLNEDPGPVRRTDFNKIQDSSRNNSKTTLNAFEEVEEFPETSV

| SMILES | IC50 [1] | IC50 [2] | IC50 [3] | IC50 [4] | also measured |
| --- | --- | --- | --- | --- | --- |
| NC(=O)c1ccc(-c2ccccc2)cc1N1CC[C@H](Oc2ccc(C(F)(F)F)cn2)C1 [Compound 1-63, (S)-3-(3-(5-(trifluoromethyl)pyridin-2-yloxy)pyrrolidin-1-yl)biphenyl-4-carboxamide] | > 1000 nM | > 1000 nM | – | – | – |
| CC(C)Oc1cc(-c2ccccc2)ccc1N1CC[C@H](Oc2ccc(C(F)(F)F)cn2)C1 [Compound 1-77, (S)-2-(1-(3-isopropoxybiphenyl-4-yl)pyrrolidin-3-yloxy)-5-(trifluoromethyl)pyridine] | > 1000 nM | > 1000 nM | > 3200 nM | 1470 nM | – |
| NC(=O)c1cc(-c2ccccc2)ccc1N1CC[C@@H](Oc2ccccn2)C1 [Compound 1-78, (R)-4-(3-(pyridin-2-yloxy)pyrrolidin-1-yl)biphenyl-3-carboxamide] | 100 to 1000 nM | 100 to 1000 nM | ~835 nM | 402 nM | – |
| NC(=O)c1cc(-c2ccncc2)ccc1N1CC[C@@H](Oc2ccccn2)C1 [Compound 1-79, (R)-2-(3-(pyridin-2-yloxy)pyrrolidin-1-yl)-5-(pyridin-4-yl)benzamide] | > 1000 nM | > 1000 nM | > 3200 nM | > 3200 nM | – |
| NC(=O)c1cc(-c2ccncc2)ccc1N1CC[C@@H](Oc2ncccc2Cl)C1 [Compound 1-82, (R)-2-(3-(3-chloropyridin-2-yloxy)pyrrolidin-1-yl)-5-(pyridin-4-yl)benzamide hydrochloride] | > 1000 nM | > 1000 nM | 3600 nM | 1930 nM | – |
| NC(=O)c1cc(C(F)(F)F)ccc1N1CC[C@@H](Oc2ccc(C(F)(F)F)cn2)C1 [Compound 1-84, (R)-5-(trifluoromethyl)-2-(3-(5-(trifluoromethyl)pyridin-2-yloxy)pyrrolidin-1-yl)benzamide] | 100 to 1000 nM | – | 631 nM | – | – |
| NC(=O)c1cc(-c2ccccn2)ccc1N1CC[C@@H](Oc2ncccc2Cl)C1 [Compound 1-85, (R)-2-(3-(3-chloropyridin-2-yloxy)pyrrolidin-1-yl)-5-(pyridin-2-yl)benzamide] | > 1000 nM | – | 3480 nM | – | – |
| NC(=O)c1cc(-c2ccccc2)ccc1N1CC[C@@H](Oc2ccc3cc(Cl)ccc3n2)C1 [Compound 1-86, (R)-4-(3-(6-chloroquinolin-2-yloxy)pyrrolidin-1-yl)biphenyl-3-carboxamide] | – | > 1000 nM | – | > 3200 nM | – |
| NC(=O)c1cc(-c2cccnc2)ccc1N1CC[C@@H](Oc2ccccn2)C1 [Compound 1-87, hydrochloride] | > 1000 nM | – | – | – | – |
| NC(=O)c1cc(-c2ccccn2)ccc1N1CC[C@@H](Oc2ccccn2)C1 [Compound 1-88, (R)-5-(pyridin-2-yl)-2-(3-(pyridin-2-yloxy)pyrrolidin-1-yl)benzamide] | > 1000 nM | > 1000 nM | > 3200 nM | > 3200 nM | – |
| Oc1cc(-c2ccccc2)ccc1N1CC[C@@H](Oc2ccc(C(F)(F)F)cn2)C1 [Compound 1-89, (R)-4-(3-(5-(trifluoromethyl)pyridin-2-yloxy)pyrrolidin-1-yl)biphenyl-3-ol] | > 1000 nM | > 1000 nM | > 3200 nM | > 3200 nM | – |
| NC(=O)c1cc(-c2ccccc2)cnc1N1CC[C@@H](Oc2ncccc2Cl)C1 [Compound 1-90, (R)-2-(3-(3-chloropyridin-2-yloxy)pyrrolidin-1-yl)-5-phenylnicotinamide] | > 1000 nM | > 1000 nM | ~3000 nM | 1600 nM | – |
| O=C(O)c1cc(-c2ccccc2)cnc1N1CC[C@@H](Oc2ccc(C(F)(F)F)cn2)C1 [Compound 1-91] | – | – | – | – | hTRPV3 (nM) (Phase 1) (Phase 1 current): Agonist (Phase 1) |
| NC(=O)c1cc(-c2ccccc2)cnc1N1CC[C@@H](Oc2ccc(C(F)(F)F)cn2)C1 [Compound 1-92, (R)-5-phenyl-2-(3-(5-(trifluoromethyl)pyridin-2-yloxy)pyrrolidin-1-yl)nicotinamide] | – | – | – | – | hTRPV3 (nM) (Phase 1) (Phase 1 current): Incomplete Block (Phase 1) Incomplete Block (Phase 2); hTRPV3 (nM) (Phase 2) (Phase 2 current): Incomplete Block (Phase 1) Incomplete Block (Phase 2) |
| Nc1cc(-c2ccccc2)ccc1N1CC[C@@H](Oc2ccc(C(F)(F)F)cn2)C1 [Compound 1-93, (R)-4-(3-(5-(trifluoromethyl)pyridin-2-yloxy)pyrrolidin-1-yl)biphenyl-3-amine] | – | – | – | – | hTRPV3 (nM) (Phase 2) (Phase 2 current): Incomplete Block; IC50 (hTRPV3 (nM) (Phase 2), Phase 2 current): 494 nM and < 320 nM |
| O=C1C(Oc2ccc3ccccc3n2)CCN1c1ccc(-c2ccccc2)cc1 (stereo not shown) [Compound 1-95, 1-(biphenyl-4-yl)-3-(quinolin-2-yloxy)pyrrolidin-2-one] | > 1000 nM | – | > 3200 nM | – | – |
| N#Cc1nc(-c2ccccc2)ccc1N1CC[C@@H](Oc2ccc(C(F)(F)F)cn2)C1 [Compound 1-97] | – | > 1000 nM | – | 2930 nM | – |
| NC(=O)c1nc(-c2ccccc2)ccc1N1CC[C@@H](Oc2ccc(C(F)(F)F)cn2)C1 [Compound 1-98, (R)-6-phenyl-3-(3-(5-(trifluoromethyl)pyridin-2-yloxy)pyrrolidin-1-yl)picolinamide] | 100 to 1000 nM | – | 479 nM | – | – |
| NC(=O)c1cc(-c2ccccc2)ncc1N1CC[C@@H](Oc2ccc(C(F)(F)F)cn2)C1 [Compound 1-99, (R)-2-phenyl-5-(3-(5-(trifluoromethyl)pyridin-2-yloxy)pyrrolidin-1-yl)isonicotinamide] | 100 to 1000 nM | 100 to 1000 nM | ~787 nM | 349 nM | – |
| NC(=O)c1cc(C2=NCCN2)ccc1N1CC[C@@H](Oc2ccc(C(F)(F)F)cn2)C1 [Compound 1-100, (R)-5-(4,5-dihydro-1H-imidazol-2-yl)-2-(3-(5-(trifluoromethyl)pyridin-2-yloxy)pyrrolidin-1-yl)benzamide] | – | – | – | – | IC50 (hTRPV3 Patch P1 Inwd (nM)): > 1000 nM; IC50 (hTRPV3 Patch P2 Inwd (nM)): > 1000 nM; IC50 (read-out: hTRPV3 (nM) (Phase 1)): > 3200 nM; IC50 (read-out: hTRPV3 (nM) (Phase 2)): > 3200 nM |
| O=C1C(Oc2ccc3ccccc3n2)CCN1c1cccc2ccccc12 (stereo not shown) [Compound 1-101] | > 1000 nM | > 1000 nM | > 1000 nM | > 1000 nM | – |
| N#Cc1ccccc1N1CCC(Oc2ccc3ccccc3n2)C1=O (stereo not shown) [Compound 1-103, 2-(2-oxo-3-(quinolin-2-yloxy)pyrrolidin-1-yl)benzonitrile] | > 1000 nM | – | > 3200 nM | – | – |
| O=C1C(Oc2ccc3ccccc3n2)CCN1c1ccccc1 (stereo not shown) [Compound 1-104, 1-phenyl-3-(quinolin-2-yloxy)pyrrolidin-2-one] | > 1000 nM | – | > 3200 nM | – | – |
| NC(=O)c1ccccc1N1CCC(Oc2ccc3ccccc3n2)C1=O (stereo not shown) [Compound 1-105, 2-(2-oxo-3-(quinolin-2-yloxy)pyrrolidin-1-yl)benzamide] | > 1000 nM | – | > 3200 nM | – | – |
| O=C1C(Oc2ccc3ccccc3n2)CCN1c1ccccc1Cl (stereo not shown) [Compound 1-106, 1-(2-chlorophenyl)-3-(quinolin-2-yloxy)pyrrolidin-2-one] | > 1000 nM | > 1000 nM | > 3200 nM | > 3200 nM | – |
| NC(=O)c1cc(-c2ncc[nH]2)ccc1N1CC[C@@H](Oc2ccc(C(F)(F)F)cn2)C1 [Compound 1-107, (R)-5-(1H-imidazol-2-yl)-2-(3-(5-(trifluoromethyl)pyridin-2-yloxy)pyrrolidin-1-yl)benzamide] | > 1000 nM | > 1000 nM | > 1000 nM | > 1000 nM | – |
| N#Cc1cc(-c2ccccc2)ccc1N1CCC(Oc2ccc3ccccc3n2)C1=O (stereo not shown) [Compound 1-108, 4-(2-oxo-3-(quinolin-2-yloxy)pyrrolidin-1-yl)biphenyl-3-carbonitrile] | – | > 1000 nM | – | > 3200 nM | – |
| COc1cc(-c2ccccc2Cl)ccc1N1CC[C@@H](Oc2ccc(C(F)(F)F)cn2)C1 [Compound 1-112, (R)-2-(1-(2′-chloro-3-methoxybiphenyl-4-yl)pyrrolidin-3-yloxy)-5-(trifluoromethyl)pyridine] | > 1000 nM | – | ~2900 nM | – | hTRPV3 (nM) (Phase 2) (Phase 2 current): Incomplete Block |
| NC(=O)c1cc(-c2ccccc2Cl)ccc1N1CCC(Oc2ccc3ccccc3n2)C1=O (stereo not shown) [Compound 1-114, 2′-chloro-4-(2-oxo-3-(quinolin-2-yloxy)pyrrolidin-1-yl)biphenyl-3-carboxamide] | > 1000 nM | > 1000 nM | ~3900 nM | ~3150 nM | – |
| Nc1cc(-c2ccccc2Cl)ccc1N1CC[C@@H](Oc2ccc(C(F)(F)F)cn2)C1 [Compound 1-116] | – | – | – | – | hTRPV3 (nM) (Phase 1) (Phase 1 current): Agonist/ Antagonist (Phase 1) Agonist/ Antagonist (Phase 2); hTRPV3 (nM) (Phase 2) (Phase 2 current): Agonist/ Antagonist (Phase 1) Agonist/ Antagonist (Phase 2) |
